Source: patent publication US10633419B2, “Immunomodulators” (BRISTOL-MYERS SQUIBB COMPANY, priority 2014, dated 2020)
pIC50: −log10 of the molar value. Positions of bridges follow the written chain, without caps; N, C: chain ends. Non-standard residues stand in square brackets, D forms with d. Residues, ends and D or L forms follow the SMILES beside them. ξ: configuration not given here. *: point of attachment. Dap(Nα-HOOC(CH2)16CO)OH = O=C(O)CCCCCCCCCCCCCCCCC(=O)N[C@@H](CN*)C(=O)O; X18 = O=C(O)CCCCCCCCCCCCCCC(=O)N[C@@H](CC(=O)NCCCOCCOCCOCCCN*)C(=O)O; Trp(1-CH2COOH) = N[C@@H](Cc1cn(CC(=O)O)c2ccccc12)C(=O)O; X9 = O=C(O)CCCCCCCCCCCCCCCCC(=O)N[C@@H](CCN*)C(=O)O; Phe(4-F) = N[C@@H](Cc1ccc(F)cc1)C(=O)O; PEG6 = NCCOCCOCCOCCOCCOCCOCCC(=O)O; Palmitoyl = CCCCCCCCCCCCCCCC(=O)*; Hyp = O=C(O)[C@@H]1C[C@@H](O)CN1; dHyp = O=C(O)[C@H]1C[C@H](O)CN1; NMeNle = CCCC[C@H](NC)C(=O)O; Pip = O=C(O)[C@@H]1CCCCN1; NMeA = CN[C@@H](C)C(=O)O; Pra = C#CC[C@H](N)C(=O)O; Aun = NCCCCCCCCCCC(=O)O; Dab = NCC[C@H](N)C(=O)O; Dap = NC[C@H](N)C(=O)O; ξC = NC(CS)C(=O)O

Target: T1, PD-L1 (Homo sapiens, UniProt Q9NZQ7)
T1 construct: hPDL1(19-239)-TVMV-His; made in house; host or cells: HEK293T
Assay: PD-1/PD-L1 Homogenous Time-Resolved Fluorescence (HTRF) binding assay (PD-1-Ig/PD-L1-His)
Conditions: inhibition of PD-1-Ig binding to PD-L1-TVMV-His; value given as range class; read-out: HTRF IC50
Procedure, shortened: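 HTRF competition in dPBS with 0.1% BSA and 0.05% Tween-20: 20 nM PD-1-Ig added after 15 min compound pre-incubation with 10 nM PD-L1-His, then another 15 min. Signal (665/620 nm) after 30 min with APC anti-His (20 nM) and Eu anti-Ig (1 nM).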

T1 sequence (Q9NZQ7 with tags, fused parts or gaps): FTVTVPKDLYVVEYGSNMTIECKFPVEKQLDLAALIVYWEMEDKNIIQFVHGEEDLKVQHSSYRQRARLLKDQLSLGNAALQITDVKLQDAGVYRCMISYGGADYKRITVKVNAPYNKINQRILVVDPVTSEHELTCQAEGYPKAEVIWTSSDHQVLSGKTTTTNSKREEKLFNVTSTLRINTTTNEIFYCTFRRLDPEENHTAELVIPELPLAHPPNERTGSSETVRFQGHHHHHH

Compound	pIC50
CCCCCCCCCCCCCCCC(=O)N[C@@H](CCn1cc(C[C@H](NC(=O)CNC(=O)[C@@H]2CSCC(=O)N[C@@H](Cc3ccc(O)cc3)C(=O)N(C)[C@@H](C)C(=O)N[C@@H](CC(=O)O)C(=O)N3CCC[C@H]3C(=O)N[C@@H](Cc3c[nH]cn3)C(=O)N[C@@H](CCCCN)C(=O)N3C[C@H](O)C[C@H]3C(=O)N[C@@H](Cc3c[nH]c4ccccc34)C(=O)N[C@@H](CCCCN)C(=O)N[C@@H](Cc3c[nH]c4ccccc34)C(=O)N(C)[C@@H](CCCC)C(=O)N(C)[C@@H](CCCC)C(=O)N[C@@H](CCC(=O)O)C(=O)N2)C(=O)NCC(N)=O)nn1)C(=O)O [Example 14059]	7.00 to 8.00
CCCC[C@H]1C(=O)N(C)[C@@H](CCCC)C(=O)N[C@@H](CC(C)C)C(=O)N[C@H](C(=O)NCC(=O)N[C@@H](CC(=O)O)C(=O)NCCOCCOCCOCCOCCOCCOCCC(=O)NC[C@H](NC(=O)CCCCCCCCCCCCCCCCC(=O)O)C(=O)O)CSCC(=O)N[C@@H](Cc2ccc(O)cc2)C(=O)N(C)[C@@H](C)C(=O)N[C@@H](CC(N)=O)C(=O)N2CCC[C@H]2C(=O)N[C@@H](CN)C(=O)N[C@@H](CC(C)C)C(=O)N2C[C@H](O)C[C@H]2C(=O)N[C@@H](Cc2c[nH]c3ccccc23)C(=O)N[C@@H](CCN)C(=O)N[C@@H](Cc2cn(CC(=O)O)c3ccccc23)C(=O)N1C [Example 11181] ({CH2CO}-Y[NMeA]NP[Dap]L[Hyp]W[Dab][Trp(1-CH2COOH)][NMeNle][NMeNle]LCGD[PEG6]-{Dap(Nα-HOOC(CH2)16CO)OH}; thioether N-14)	5.80 to 7.00
CCCC[C@H]1C(=O)N(C)[C@@H](CCCC)C(=O)N[C@@H](CCC(=O)O)C(=O)N[C@H](C(=O)NCC(=O)N[C@@H](Cc2cn(CC[C@H](NC(=O)CCCCCCCCCCCCCCC(=O)O)C(=O)O)nn2)C(=O)NCC(N)=O)CSCC(=O)N[C@@H](Cc2ccc(O)cc2)C(=O)N(C)[C@@H](C)C(=O)N[C@@H](CC(=O)O)C(=O)N2CCC[C@H]2C(=O)N[C@@H](Cc2c[nH]cn2)C(=O)N[C@@H](CCC(N)=O)C(=O)N2C[C@H](O)C[C@H]2C(=O)N[C@@H](Cc2c[nH]c3ccccc23)C(=O)N[C@@H](CO)C(=O)N[C@@H](Cc2c[nH]c3ccccc23)C(=O)N1C [Example 14069]	7.00 to 8.00
CCCC[C@H]1C(=O)N2C[C@H](O)C[C@@H]2C(=O)N[C@@H](CC(=O)O)C(=O)N[C@@H](C(C)C)C(=O)N(C)[C@@H](Cc2ccccc2)C(=O)N[C@@H](CC(=O)O)C(=O)N2CCC[C@@H]2C(=O)N[C@@H](Cc2c[nH]c3ccccc23)C(=O)N[C@@H](Cc2ccc(O)cc2)C(=O)N[C@@H](CC(C)C)C(=O)N[C@H](C(=O)NCC(=O)N[C@@H](Cc2cn(CC[C@H](NC(=O)CCCCCCCCCCCCCCC(=O)O)C(=O)O)nn2)C(N)=O)CSCC(=O)N[C@@H](Cc2cc(F)c(F)c(F)c2)C(=O)N(C)[C@@H](Cc2ccccc2)C(=O)N1C [Example 14074]	7.00 to 8.00
CCCCCCCCCCCCCCCC(=O)NCCCC[C@H](NC(=O)[C@H](CO)NC(=O)CNC(=O)CNC(=O)CNC(=O)CNC(=O)[C@@H]1CSCC(=O)N[C@@H](Cc2ccc(O)cc2)C(=O)N(C)[C@@H](C)C(=O)N[C@@H](CC(N)=O)C(=O)N2CCC[C@H]2C(=O)N[C@@H](CCN)C(=O)N[C@@H](CC(C)C)C(=O)N2C[C@H](O)C[C@H]2C(=O)N[C@@H](Cc2c[nH]c3ccccc23)C(=O)N[C@@H](CO)C(=O)N[C@@H](Cc2c[nH]c3ccccc23)C(=O)N(C)[C@@H](CCCC)C(=O)N(C)[C@@H](CCCC)C(=O)N[C@@H](CCCNC(=N)N)C(=O)N1)C(N)=O [Example 11022] ({CH2CO}-Y[NMeA]NP[Dab]L[Hyp]WSW[NMeNle][NMeNle]RCGGGGSK(Palmitoyl)-NH2; thioether N-14)	5.80 to 7.00
CCCCCCCCCCCCCCCC(=O)NCCCC[C@H](NC(=O)[C@H](CO)NC(=O)CNC(=O)[C@H](CO)NC(=O)CNC(=O)[C@@H]1CSCC(=O)N[C@@H](Cc2ccc(O)cc2)C(=O)N(C)[C@@H](C)C(=O)N[C@@H](CC(N)=O)C(=O)N2CCC[C@H]2C(=O)N[C@@H](CCN)C(=O)N[C@@H](CC(C)C)C(=O)N2C[C@H](O)C[C@H]2C(=O)N[C@@H](Cc2c[nH]c3ccccc23)C(=O)N[C@@H](CO)C(=O)N[C@@H](Cc2c[nH]c3ccccc23)C(=O)N(C)[C@@H](CCCC)C(=O)N(C)[C@@H](CCCC)C(=O)N[C@@H](CCCNC(=N)N)C(=O)N1)C(N)=O [Example 11023] ({CH2CO}-Y[NMeA]NP[Dab]L[Hyp]WSW[NMeNle][NMeNle]RCGSGSK(Palmitoyl)-NH2; thioether N-14)	5.80 to 7.00
CCCCCCCCCCCCCCCC(=O)NCCCC[C@H](NC(=O)[C@H](CO)NC(=O)CNC(=O)CNC(=O)CNC(=O)[C@@H]1CSCC(=O)N[C@@H](Cc2ccc(O)cc2)C(=O)N(C)[C@@H](C)C(=O)N[C@@H](CC(N)=O)C(=O)N2CCC[C@H]2C(=O)N[C@@H](CCN)C(=O)N[C@@H](CC(C)C)C(=O)N2C[C@H](O)C[C@H]2C(=O)N[C@@H](Cc2c[nH]c3ccccc23)C(=O)N[C@@H](CO)C(=O)N[C@@H](Cc2c[nH]c3ccccc23)C(=O)N(C)[C@@H](CCCC)C(=O)N(C)[C@@H](CCCC)C(=O)N[C@@H](CCCNC(=N)N)C(=O)N1)C(N)=O [Example 11024] ({CH2CO}-Y[NMeA]NP[Dab]L[Hyp]WSW[NMeNle][NMeNle]RCGGGSK(Palmitoyl)-NH2; thioether N-14)	5.80 to 7.00
CCCCCCCCCCCCCCCC(=O)NCCCC[C@H](NC(=O)CCOCCOCCOCCOCCOCCOCCNC(=O)CNC(=O)C1CSCC(=O)N[C@@H](Cc2ccc(O)cc2)C(=O)N(C)[C@@H](C)C(=O)N[C@@H](CC(=O)O)C(=O)N2CCC[C@H]2C(=O)N[C@@H](Cc2cnc[nH]2)C(=O)N[C@@H](CC(C)C)C(=O)N2C[C@H](O)C[C@H]2C(=O)N[C@@H](Cc2c[nH]c3ccccc23)C(=O)N[C@@H](CO)C(=O)N[C@@H](Cc2c[nH]c3ccccc23)C(=O)N(C)[C@@H](CCCC)C(=O)N(C)[C@@H](CCCC)C(=O)N[C@@H](CCCNC(=N)N)C(=O)N1)C(N)=O (stereo partly shown) [Example 11029] ({CH2CO}-Y[NMeA]DPHL[Hyp]WSW[NMeNle][NMeNle]R[ξC]G[PEG6]K(Palmitoyl)-NH2; thioether N-14)	5.80 to 7.00
CCCC[C@H]1C(=O)N(C)[C@@H](CCCC)C(=O)N[C@@H](CC(C)C)C(=O)N[C@H](C(=O)NCC(=O)NCC(=O)NCC(=O)NCCCCCCCCCCC(=O)O)CSCC(=O)N[C@@H](Cc2ccc(O)cc2)C(=O)N(C)[C@@H](C)C(=O)N[C@@H](CC(=O)O)C(=O)N2CCC[C@H]2C(=O)N[C@@H](CN)C(=O)N[C@@H](CCC(N)=O)C(=O)N2C[C@H](O)C[C@H]2C(=O)N[C@@H](Cc2c[nH]c3ccccc23)C(=O)N[C@@H](CCN)C(=O)N[C@@H](Cc2cn(CC(=O)O)c3ccccc23)C(=O)N1C [Example 11095] ({CH2CO}-Y[NMeA]DP[Dap]Q[Hyp]W[Dab][Trp(1-CH2COOH)][NMeNle][NMeNle]LCGGG[Aun]-OH; thioether N-14)	8.00 to 9.52
CCCC[C@H]1C(=O)N(C)[C@@H](CCCC)C(=O)N[C@@H](CC(C)C)C(=O)N[C@H](C(=O)NCCCOCCOCCOCCCNC(=O)C[C@H](NC(=O)CCCCCCCCCCCCCCC(=O)O)C(=O)O)CSCC(=O)N[C@@H](Cc2ccc(O)cc2)C(=O)N(C)[C@@H](C)C(=O)N[C@@H](CC(N)=O)C(=O)N2CCC[C@@H]2C(=O)N[C@@H](CN)C(=O)N[C@@H](CC(C)C)C(=O)N2C[C@@H](O)C[C@@H]2C(=O)N[C@@H](Cc2c[nH]c3ccccc23)C(=O)N[C@@H](CCN)C(=O)N[C@@H](Cc2cn(CC(=O)O)c3ccccc23)C(=O)N1C [Example 11242] ({CH2CO}-Y[NMeA]N[dP][Dap]L[dHyp]W[Dab][Trp(1-CH2COOH)][NMeNle][NMeNle]LC-X18; thioether N-14)	7.00 to 8.00
C#CC[C@H](NC(=O)CNC(=O)CNC(=O)[C@@H]1CSCC(=O)N[C@@H](Cc2ccc(O)cc2)C(=O)N(C)[C@@H](C)C(=O)N[C@@H](CC(N)=O)C(=O)N2CCC[C@H]2C(=O)N[C@@H](CN)C(=O)N[C@@H](CC(C)C)C(=O)N2C[C@H](O)C[C@H]2C(=O)N[C@@H](Cc2c[nH]c3ccccc23)C(=O)N[C@@H](CCN)C(=O)N[C@@H](Cc2cn(CC(=O)O)c3ccccc23)C(=O)N(C)[C@@H](CCCC)C(=O)N(C)[C@@H](CCCC)C(=O)N[C@@H](CC(C)C)C(=O)N1)C(=O)O [INT130AA] ({CH2CO}-Y[NMeA]NP[Dap]L[Hyp]W[Dab][Trp(1-CH2COOH)][NMeNle][NMeNle]LCGG[Pra]-OH; thioether N-14)	7.00 to 8.00
CCCC[C@H]1C(=O)N(C)[C@@H](CCCC)C(=O)N[C@@H](CC(C)C)C(=O)N[C@H](C(=O)NCC(=O)N[C@@H](CCC(=O)NCC[C@H](NC(=O)CCCCCCCCCCCCCCCCC(=O)O)C(=O)O)C(=O)O)CSCC(=O)N[C@@H](Cc2ccc(F)cc2)C(=O)N2CCCC[C@H]2C(=O)N[C@@H](CC(=O)O)C(=O)N2CCC[C@H]2C(=O)N[C@@H](CN)C(=O)N[C@@H](CC(C)C)C(=O)N2C[C@H](O)C[C@H]2C(=O)N[C@@H](Cc2c[nH]c3ccccc23)C(=O)N[C@@H](CCN)C(=O)N[C@@H](Cc2cn(CC(=O)O)c3ccccc23)C(=O)N1C [Example 13148] ({CH2CO}-[Phe(4-F)][Pip]DP[Dap]L[Hyp]W[Dab][Trp(1-CH2COOH)][NMeNle][NMeNle]LCGE(X9)-OH; thioether N-14)	7.00 to 8.00
CCCCCCCCCCCCCCCC(=O)NCCCC[C@H](NC(=O)[C@H](CC(=O)O)NC(=O)CNC(=O)CNC(=O)[C@@H]1CSCC(=O)N[C@@H](Cc2ccc(O)cc2)C(=O)N(C)[C@@H](C)C(=O)N[C@@H](CC(N)=O)C(=O)N2CCC[C@H]2C(=O)N[C@@H](CCN)C(=O)N[C@@H](CC(C)C)C(=O)N2C[C@H](O)C[C@H]2C(=O)N[C@@H](Cc2c[nH]c3ccccc23)C(=O)N[C@@H](CO)C(=O)N[C@@H](Cc2c[nH]c3ccccc23)C(=O)N(C)[C@@H](CCCC)C(=O)N(C)[C@@H](CCCC)C(=O)N[C@@H](CCCNC(=N)N)C(=O)N1)C(N)=O [Example 11026] ({CH2CO}-Y[NMeA]NP[Dab]L[Hyp]WSW[NMeNle][NMeNle]RCGGDK(Palmitoyl)-NH2; thioether N-14)	5.80 to 7.00
